These results are taken from paper PMC5702336, “Critical Role of Hepatic Cyp450s in the Testis-Specific Toxicity of (5R)-5-Hydroxytriptolide in C57BL/6 Mice” (Frontiers in Pharmacology, 2017).

For one data set, the system named is RNA polymerase II. Description: RNA polymerase II protein level in testes and liver (western blot). The class given is in vivo, mouse. The conditions noted are these: 0.5–1 mg/kg, 15 days. The protocol: For toxicity experiments, mice (n = 3/group) were treated with LLDT-8 (0.5 or 1.0 mg/kg) consecutively administered by gavage for 15 days. Controls received saline. Mice were killed on the 15th-day post-administration and blood, liver, kidney, spleen, testes, and epididymis were collected. About 500 μL blood samples were collected from the heart. The main lobe of the liver, kidney, spleen, and epididymis was fixed in 10% neutral buffered formalin for histological examination, and the left testicle was fixed in modified Davidson's buffer (30% of a 37–40% solution of formaldehyde, 15% ethanol, 5% glacial acetic acid, and 50% distilled H2O) for 16 h followed by 10% neutral buffered formalin for 24 h (Latendresse et al., [2002]). Tissue sections were stained with hematoxylin and eosin (H&E). Remaining tissues were stored at −80°C for RNA and protein extraction.
Cells were washed twice with ice-cold PBS (137 mM NaCl, 2.7 mM KCl, 10 mM Na2HPO4, and 1.8 mM KH2PO4, pH 7.4) and lysed in SDS sample buffer. Cell lysates, containing 20 μg of protein, were separated with SDS-PAGE (8%) and transferred to polyvinylidene difluoride membranes. After blocking in 5% non-fat milk in tris-buffered saline containing 0.1% Tween-20 (pH = 7.6), membranes were incubated with the appropriate primary antibodies at 4°C overnight. The primary antibodies γ-H2AX (Cat. No: 2577, Lot. No: 11, CST, USA) and Pol II (Cat. No: 05-623, Lot. No: 2397109, Millipore, USA) diluted 1:1000 in 5% bovine serum albumin (BSA, Cat. No. B2064-50G, Sigma, USA). Then the membranes were exposed to secondary antibodies (1:10,000, Cat. No.111-035-003, 115-035-003, Jackson ImmunoResearch Laboratories, USA) in 5% non-fat milk for 1 h at room temperature. Immunoreactive proteins were visualized using an enhanced chemiluminescent system (Cat. No. WBKLS0500, Millipore, Shanghai, China).
For orientation: A western blot detects proteins with antibodies after separation by electrophoresis.

Another data set relates to mice testes. Description: Testicular toxicity comparison between triptolide and LLDT-8 (15 days by gavage, H&E). The class given is in vivo, mouse. The conditions noted are these: 0.5 mg/kg by gavage for 15 days. On the procedure:
For toxicity experiments, mice (n = 3 for each group) were treated with tritpilide (0.125, 0.25, 0.5mg/kg), LLDT-8 (0.125, 0.25, 0.5mg/kg) consecutively administered by gavage for 15 days. The control group received saline. Mice were sacrificed on the 15th day post-administration and blood, liver, kidney, spleen, testis and epididymis were collected. The main lobe of liver, kidney, spleen and epididymis were fixed in 10% neutral buffered formalin for histological examination, the left testicle was fixed in Davidson’s buffer for 16 hours followed by 10% neutral buffered formalin. Tissue sections were stained with hematoxylin and eosin (H&E). Remaining tissues were stored at -80 °C for RNA and protein extraction.
Supplementary Figure S1 Comparison of testicular toxicity between triptolide(TL) and LLDT-8. Mice (n=3) were weighted before sacrificed on the 15th day post-administration of triptolide, LLDT-8 or saline. The testes were collected and weighted. […] (G-H) Comparison of epididymis weight between triptolide and LLDT-8. Significant difference was determined by one-way Anova, mean ± SD. * p<0.05, *** p<0.001 vs Saline group. # p<0.05, ## p<0.01, ### p<0.001 vs T8 group at the same dosage.

The test system of data set [1] is GC-2spd, GC-1spg and TM4 cells. Description: γ-H2AX protein level in three germ-cell lines (western blot). The class given is cell-based, mouse. The conditions noted are these: 8h/16h treatment. On the procedure:
Mouse GC-1spg (spermatogonia-like, ATCC number: CRL-2053), TM4 (Sertoli cell-like, ATCC number: CRL-1715), and GC-2spd (spermatocyte-like, ATCC number: CRL-2196) were purchased from ATCC (Manassas, VA). Cells were grown in a 5% CO2 atmosphere at 37°C. TM4 was cultured in DMEM supplemented with 5% horse serum, 2.5% fetal bovine serum and 1x antibiotic-antimyotic (Cat. NO. 15240062, Life technologies). GC-1spg and GC-2spd were cultured in DMEM supplemented with 10% fetal bovine serum (Cat. No. F2442, Sigma, USA) and 1x antibiotic-antimyotic (Cat.NO. 15240062, Life technologies).
Cells were washed twice with ice-cold PBS (137 mM NaCl, 2.7 mM KCl, 10 mM Na2HPO4, and 1.8 mM KH2PO4, pH 7.4) and lysed in SDS sample buffer. Cell lysates, containing 20 μg of protein, were separated with SDS-PAGE (8%) and transferred to polyvinylidene difluoride membranes. […]
The effects of LLDT-8 on the expression of γ-H2AX was investigated in spermatocyte-like GC-2spd cells (A), spermatogonia-like cells (B) and sertoli-like cells (C) after 8h/16h treatment of LLDT-8 at indicated concentration. The protein level was quantified with ImageQuant software. β-actin was used as a loading control. Significant difference was determined by one-way Anova, Bars represent the mean ± SD, n = 3, * p<0.05, ** p<0.01 vs control group (0 nM).

In another data set the test system is mice. Also on record: method as in Zhou et al., 2005. The conditions noted are these: p.o., ref Zhou et al., 2005; cited from earlier work.

For orientation: LD50 means the dose at which mortality reaches 50%.

Take `CC(C)[C@]12O[C@H]1[C@@H]1O[C@]13[C@]1(O[C@H]1C[C@@]1(O)C4=C(CC[C@]31C)C(=O)OC4)[C@@H]2O` [LLDT-8, (5R)-5-hydroxytriptolide]: in the data set on RNA polymerase II, the “Pol II protein in the testes of KO mice” value is “decreased”; the “Pol II protein level in the livers of KO mice” value is “did not change”; the “expression of Pol II in the testes and liver of WT mice” value is “did not change significantly”. Besides, the “testis morphology (H&E)” value with mice testes is “did not obviously alter the normal morphology of testes”. In addition, the “protein levels of γ-H2AX in three germ-cell lines” value in data set [1] was “did not decrease”. Further, in the data set on mice, the LD50 is on record as 9.3 mg/kg.
